In the series the test system is CCRIS mutagenicity, Ames/micronucleus/aberration tests. Nature of the series: CCRIS mutagenicity studies.
Where [1] appears, read: Test System: AMES SALMONELLA TYPHIMURIUM, Strain/Indicator: TA98, Metabolic Activation: NONE, Method: PREINCUBATION
[2] abbreviates: Test System: AMES SALMONELLA TYPHIMURIUM, Strain/Indicator: TA100, Metabolic Activation: NONE, Method: PREINCUBATION
Where [3] appears, read: Test System: AMES SALMONELLA TYPHIMURIUM, Strain/Indicator: TA100, Metabolic Activation: RAT, LIVER, S-9, AROCLOR 1254 (10%), Method: PREINCUBATION
Where [4] appears, read: Test System: AMES SALMONELLA TYPHIMURIUM, Strain/Indicator: TA1535, Metabolic Activation: HAMSTER, LIVER, S-9, AROCLOR 1254 (10%), Method: PREINCUBATION
[5] abbreviates: Test System: AMES SALMONELLA TYPHIMURIUM, Strain/Indicator: TA1535, Metabolic Activation: NONE, Method: PREINCUBATION
[6] abbreviates: Test System: AMES SALMONELLA TYPHIMURIUM, Strain/Indicator: TA1535, Metabolic Activation: RAT, LIVER, S-9, AROCLOR 1254 (10%), Method: PREINCUBATION
Setting [7] is: Test System: AMES SALMONELLA TYPHIMURIUM, Strain/Indicator: TA102, Metabolic Activation: NONE, Method: STANDARD PLATE.
The mark [8] stands for this setting: Test System: AMES SALMONELLA TYPHIMURIUM, Strain/Indicator: TA98, Metabolic Activation: NONE, Method: STANDARD PLATE.
Setting [9] is: Test System: AMES SALMONELLA TYPHIMURIUM, Strain/Indicator: TA100, Metabolic Activation: NONE, Method: STANDARD PLATE.

Structures are written as SMILES. Active and inactive are the calls of the source. The rule behind the calls is not given here.

Regarding `O=C1OC(c2ccc(O)cc2)(c2ccc(O)cc2)c2ccccc21`, the mutagenic call (End Point: In vivo micronucleus, Test System: Peripheral blood normochromatic erythrocytes, Species: Mouse, Strain/Sex: Haploinsufficient p16(Ink4a)p19(Arf), Route: Oral) is “active; positive”; the mutagenic call (End Point: In vivo micronucleus, Test System: Polychromatic erythrocytes, Species: Mouse, Strain/Sex: C57BL/6TacBr-[KO]p53[TSG-p53], Route: Oral) was “active; positive at all days”; the mutagenic call (Test System: AMES SALMONELLA TYPHIMURIUM, Strain/Indicator: TA98, Metabolic Activation: HAMSTER, LIVER, S-9, AROCLOR 1254 (10%), Method: PREINCUBATION) is “inactive; negative”; the mutagenic call under setting [1] is “inactive; negative”; the mutagenic call (Test System: AMES SALMONELLA TYPHIMURIUM, Strain/Indicator: TA98, Metabolic Activation: RAT, LIVER, S-9, AROCLOR 1254 (10%), Method: PREINCUBATION) was “inactive; negative”; the mutagenic call (Test System: AMES SALMONELLA TYPHIMURIUM, Strain/Indicator: TA100, Metabolic Activation: HAMSTER, LIVER, S-9, AROCLOR 1254 (10%), Method: PREINCUBATION) was “inactive; negative”. The mutagenic call under setting [2] was “inactive; negative”; the mutagenic call under setting [3] is “inactive; negative”; the mutagenic call under setting [4] was “inactive; negative”; the mutagenic call under setting [5] is “inactive; negative”; the mutagenic call under setting [6] was “inactive; negative”; the mutagenic call (Test System: AMES SALMONELLA TYPHIMURIUM, Strain/Indicator: TA1537, Metabolic Activation: HAMSTER, LIVER, S-9, AROCLOR 1254 (10%), Method: PREINCUBATION) was “inactive; negative”. Further, the mutagenic call by setting is: (Test System: AMES SALMONELLA TYPHIMURIUM, Strain/Indicator: TA1537, Metabolic Activation: NONE, Method: PREINCUBATION) “inactive; negative”; (Test System: AMES SALMONELLA TYPHIMURIUM, Strain/Indicator: TA1537, Metabolic Activation: RAT, LIVER, S-9, AROCLOR 1254 (10%), Method: PREINCUBATION) “inactive; negative”; (Test System: Syrian hamster embryo cells, Strain/Indicator: HPRT/6-thioguanine, Method: Plate) “active; positive”.
Take `c1ccc2c(c1)Cc1c-2ccc2ccc3ccccc3c12`: the mutagenic call (Test System: AMES SALMONELLA TYPHIMURIUM, Strain/Indicator: TA100, Metabolic Activation: RAT, LIVER, S-9, AROCLOR 1254, Method: STANDARD PLATE) was “active; positive”.
For the compound `OC1c2cccc3c2[C@]2(O[C@H]2C1O)c1ccccc1-3` (stereo partly drawn), the mutagenic call is, setting by setting: (Test System: AMES SALMONELLA TYPHIMURIUM, Strain/Indicator: TM677, Metabolic Activation: NONE, Method: PREINCUBATION) “active; positive”; (Test System: AMES SALMONELLA TYPHIMURIUM, Strain/Indicator: TM677, Metabolic Activation: RAT, LIVER, POSTMITOCHONDRIAL SUPERNATANT, AROCLOR 1254, Method: PREINCUBATION) “active; positive”.
For the compound `CCCCCCOCC1CO1` (stereo not drawn), the mutagenic call by setting is: under setting [2], “active; positive”; under setting [3], “inactive; negative”; under setting [4], “active; positive”; under setting [5], “active; positive”; under setting [6], “active; positive”.
For `COc1cccc2c1C(=O)c1c(O)c3c(c(O)c1C2=O)C[C@@](O)(C(C)=O)C[C@@H]3O[C@@H]1C[C@@H](N(C)C)[C@@H](O)[C@@H](C)O1`, the mutagenic call under setting [7] was “active; positive”.
With `c1ccc(CNc2ncnc3nc[nH]c23)cc1`, the mutagenic call was “inactive; negative” under setting [8]; “inactive; negative” (Test System: AMES SALMONELLA TYPHIMURIUM, Strain/Indicator: TA98, Metabolic Activation: RAT LIVER S-9, 3-METHYLCHOLANTHRENE AND PHENOBARBITAL, Method: STANDARD PLATE); “inactive; negative” (Test System: AMES SALMONELLA TYPHIMURIUM, Strain/Indicator: TA98, Metabolic Activation: RAT, LIVER, S-9, AROCLOR, Method: STANDARD PLATE); “inactive; negative” under setting [9]; “inactive; negative” (Test System: AMES SALMONELLA TYPHIMURIUM, Strain/Indicator: TA100, Metabolic Activation: RAT LIVER S-9, 3-METHYLCHOLANTHRENE AND PHENOBARBITAL, Method: STANDARD PLATE); “inactive; negative” (Test System: AMES SALMONELLA TYPHIMURIUM, Strain/Indicator: TA100, Metabolic Activation: RAT, LIVER, S-9, AROCLOR, Method: STANDARD PLATE). For the setting “Test System: CHINESE HAMSTER V-79, Strain/Indicator: V-79/6-THIOGUANINE (HGPRT), Metabolic Activation: NONE, Method: STANDARD PLATE”, the mutagenic call was “inactive; negative”.
Turning to `COC(=O)c1cc2c(c3c1c([N+](=O)[O-])cc1c(OC)cccc13)OCO2`, the mutagenic call is “active; positive” under setting [8]; “active; positive” under setting [9]; “inactive; negative” under setting [7]; “active; positive” (Test System: AMES SALMONELLA TYPHIMURIUM, Strain/Indicator: TA1537, Metabolic Activation: NONE, Method: STANDARD PLATE); “inactive; negative” (Test System: AMES SALMONELLA TYPHIMURIUM, Strain/Indicator: TM677/8-AZAGUANINE, Metabolic Activation: NONE, Method: SUSPENSION/PLATE).
On to `Nc1ccc(Cc2ccc(N=O)c(Cl)c2)cc1Cl`, for which the mutagenic call is, setting by setting: under setting [1], “inactive; negative”; under setting [2], “inactive; negative”.
`Nc1ccc(-c2ccc(N)c(Br)c2)cc1Br`: the mutagenic call runs as follows: (Test System: AMES SALMONELLA TYPHIMURIUM, Strain/Indicator: TA98(1,8-DNP6), Metabolic Activation: NONE, Method: STANDARD PLATE) “active; positive”; (Test System: AMES SALMONELLA TYPHIMURIUM, Strain/Indicator: TA98(1,8-DNP6), Metabolic Activation: S-9, Method: STANDARD PLATE) “active; positive”; (Test System: AMES SALMONELLA TYPHIMURIUM, Strain/Indicator: TA98/1,8-DNP6, Metabolic Activation: HAMSTER, LIVER, S-9, Method: PREINCUBATION) “active; positive”; (Test System: AMES SALMONELLA TYPHIMURIUM, Strain/Indicator: TA98/1,8-DNP6, Metabolic Activation: NONE, Method: PREINCUBATION) “active; positive”; (Test System: AMES SALMONELLA TYPHIMURIUM, Strain/Indicator: TA98, Metabolic Activation: HAMSTER, LIVER, S-9, Method: PREINCUBATION) “active; positive”; under setting [1], “active; positive”. Further, the mutagenic call was “active; positive” under setting [8]; “active; positive” (Test System: AMES SALMONELLA TYPHIMURIUM, Strain/Indicator: TA98, Metabolic Activation: S-9, Method: STANDARD PLATE); “inactive; negative” under setting [9]; “active; positive” (Test System: AMES SALMONELLA TYPHIMURIUM, Strain/Indicator: TA100, Metabolic Activation: S-9, Method: STANDARD PLATE).

The record behind these values is PubChem BioAssay AID1259407 (Chemical Carcinogenesis Research Information System (CCRIS), 2018).
